One assay has as its system Aβ1-42. Description: Measurement of Aβ1-42 in culture medium of 7W WT APP751 CHO cells by ELISA. The assay is classed as cell-based, Chinese hamster. Particulars: for activity at 5 µM: Cricetulus griseus, Table 1, 5 μM test compound, CHO cells stably transfected with human APP751, culture medium, ELISA, control DMSO, 0 = no detectable amount, read-out: Aβ1-42 (% of control). Background: ELISA stands for enzyme-linked immunosorbent assay.

For a further assay, the system named is Aβ1-40. Description: Measurement of Aβ1-40 in culture medium of 7W WT APP751 CHO cells by ELISA. In kind it is cell-based, Chinese hamster. The settings on record: for activity at 5 µM: Cricetulus griseus, Table 1, 5 μM test compound, CHO cells stably transfected with human APP751, culture medium, ELISA, control DMSO, 0 = no detectable amount.
The mark [1] stands for this setting: CHO cells that overexpress APP751, zero = below the detection limit of the assay.
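Note: 5 µM test compound but RI-coded compounds at 10 µM for 24 hours.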

As for `CCCCCOC(=O)C1=C(C)NC2=C(C(=O)CC(C)(C)C2)C1c1ccccc1Br` (stereo not drawn) [ST216079, pentyl 4-(2-bromophenyl)-2,7,7-trimethyl-5-oxo-1,4,6,7,8-pentahydroquinoline-3-carboxylate], the results for the activity at 5 µM in the assay with Aβ1-42 and in the assay on Aβ1-40 were 20.5% and 25.8%, respectively.

On to `CCCCCOC(=O)C1=C(C)NC2=C(C(=O)CC(C)(C)C2)C1c1ccc([N+](=O)[O-])cc1` (stereo not drawn) [ST216093, pentyl 2,7,7-trimethyl-4-(4-nitrophenyl)-5-oxo-1,4,6,7,8-pentahydroquinoline-3-carboxylate], for which the activity at 5 µM with Aβ1-42 and in the assay on Aβ1-40 was 0% throughout.

Turning to `CCCCCOC(=O)C1=C(C)NC2=C(C(=O)CC(C)(C)C2)C1c1cc2c(cc1Br)OCO2` (stereo not drawn) [ST216568, pentyl 4-(6-bromo(2H-benzo[d]1,3-dioxolan-5-yl))-2,7,7-trimethyl-5-oxo-1,4,6,7,8-pentahydroquinoline-3-carboxylate], the activity at 5 µM amounted to 24.7% in the assay with Aβ1-42 and 14.8% with Aβ1-40.

Consider `CCCCCOC(=O)C1=C(C)NC2=C(C(=O)CC(C)(C)C2)C1c1ccc2c(c1)OCO2` (stereo not drawn) [ST216581, pentyl 4-(2H-benzo[3,4-d]1,3-dioxolan-5-yl)-2,7,7-trimethyl-5-oxo-1,4,6,7,8-pentahydroquinoline-3-carboxylate], for which the activity at 5 µM is 41.6% in the assay on Aβ1-42 and 28.6% in the assay on Aβ1-40.

As to `CCCCCOC(=O)C1=C(C)NC2=C(C(=O)CC(C)(C)C2)C1c1ccc(C)cc1` (stereo not drawn) [ST216602, pentyl 2,7,7-trimethyl-4-(4-methylphenyl)-5-oxo-1,4,6,7,8-pentahydroquinoline-3-carboxylate], the activity at 5 µM in the assay with Aβ1-42 is 5.01%; with Aβ1-40, 2.65%.

Turning to `CCCCCOC(=O)C1=C(C)NC2=C(C(=O)CC(C)(C)C2)C1c1ccc(OC)cc1` (stereo not drawn) [ST216606, pentyl 4-(4-methoxyphenyl)-2,7,7-trimethyl-5-oxo-1,4,6,7,8-pentahydroquinoline-3-carboxylate], the results for the activity at 5 µM in the assay on Aβ1-42 and in the assay with Aβ1-40 were 9.56% and 1.4%, respectively.

Turning to `CC1=C(C(=O)OCc2ccccc2)C(c2ccccc2Br)C2=C(CC(C)(C)CC2=O)N1` (stereo not drawn) [ST216854, phenylmethyl 4-(2-bromophenyl)-2,7,7-trimethyl-5-oxo-1,4,6,7,8-pentahydroquinoline-3-carboxylate], the activity at 5 µM stood at 60% in the assay on Aβ1-42 and 29.4% in the assay with Aβ1-40.

`CC1=C(C(=O)OCc2ccccc2)C(c2ccccc2I)C2=C(CC(C)(C)CC2=O)N1` (stereo not drawn) [ST216858, phenylmethyl 4-(2-iodophenyl)-2,7,7-trimethyl-5-oxo-1,4,6,7,8-pentahydroquinoline-3-carboxylate]: the activity at 5 µM in the assay with Aβ1-42 turned out to be 61.5%; in the assay on Aβ1-40 it was 30.1%.

With `COC(=O)C1=C(C)NC2=C(C(=O)CC(C)(C)C2)C1c1ccc(-c2ccccc2)cc1` (stereo not drawn) [ST216875, methyl 2,7,7-trimethyl-5-oxo-4-(4-phenylphenyl)-1,4,6,7,8-pentahydroquinoline-3-carboxylate], the activity at 5 µM with Aβ1-42 turned out to be 33%; in the assay on Aβ1-40, 14.2%.

For `CC1=C(C(=O)OC2CCCCC2)C(c2ccc3c(c2)OCO3)C2=C(CC(C)(C)CC2=O)N1` (stereo not drawn) [ST216920, cyclohexyl 4-(2H-benzo[3,4-d]1,3-dioxolen-5-yl)-2,7,7-trimethyl-5-oxo-1,4,6,7,8-pentahydroquinoline-3-carboxylate], the results for the activity at 5 µM with Aβ1-42 and with Aβ1-40 were 3.82% and 1.4%, respectively.

Turning to `CC1=C(C(=O)Nc2ccccc2)C(c2c(Cl)cccc2Cl)C(C(=O)Nc2ccccc2)=C(C)N1` [ST217080, [4-(2,6-dichlorophenyl)-2,6-dimethyl-5-(N-phenylcarbamoyl)(3-1,4-dihydropyridyl)]-N-benzamide], the “Aβ1-42 (% of control)” value in the assay with Aβ1-42 (setting [1]) was 0 % of control. Further, the “Aβ1-40 (% of control)” value in the assay on Aβ1-40 (setting [1]) is 65.54 % of control.

`CCCCCOC(=O)C1=C(C)NC2=C(C(=O)CC(C)(C)C2)C1c1ccc(OCCC)cc1` (stereo not drawn) [ST217244, pentyl 2,7,7-trimethyl-5-oxo-4-(4-propoxyphenyl)-1,4,6,7,8-pentahydroquinoline-3-carboxylate]: the activity at 5 µM in the assay on Aβ1-42 was determined as 41.5%; with Aβ1-40 it was 24.9%.

Values taken from patent publication US20100119599A1 (ARCHER PHARMACEUTICALS, INC., priority 2006, published 2010).
